Experimental data from US10988477B2 (Merck Patent GmbH, priority 2018, dated 2021).
Structures can show the parent of a compound that is named as a salt.

Tests used:
GCN2 kinase = GCN2 kinase (Homo sapiens, UniProt Q9P2K8); assay: GCN2 enzyme inhibition assay (Transcreener ADP2 fluorescence polarization); type: biochemical; settings: compounds of Formula II; 280 μM ATP, 4 nM GCN2 kinase
Procedure, shortened: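 FP detection of ADP (antibody plus Alexa633 tracer) after a 1 h, 25 °C kinase reaction. Enzyme 4 nM, ATP 280 μM, (RS)7 peptide 200 μM, Tris pH 7.5 buffer with MgCl2 and DTT. Percent inhibition fitted by non-linear tight-binding algorithm for IC50 and Ki(app).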

[1] = target: intracellular GCN2 (phosphorylation of the GCN2 substrate eIF2α) (Homo sapiens, UniProt Q9P2K8); assay: GCN2 cellular inhibition assay (AlphaScreen SureFire P-eIF2α Ser51, borrelidin-treated U2OS cells); type: cell-based; settings: compounds of Formula II; biomarker assay, phosphorylated eIF2α Ser51 in borrelidin-treated U2OS cells
Procedure, shortened: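 First, U2OS cells are plated and left overnight at 37 °C. Next, compounds (from 40 μM final, 4-fold steps) and 10 μM borrelidin are added for 1 h, cells lysed, and phospho-Ser51 eIF2α detected by AlphaScreen bead sandwich. Inhibition is computed versus borrelidin-only wells.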

intracellular GCN2 (phosphorylation of the GCN2 substrate eIF2α), sequence (Q9P2K8 whole entry): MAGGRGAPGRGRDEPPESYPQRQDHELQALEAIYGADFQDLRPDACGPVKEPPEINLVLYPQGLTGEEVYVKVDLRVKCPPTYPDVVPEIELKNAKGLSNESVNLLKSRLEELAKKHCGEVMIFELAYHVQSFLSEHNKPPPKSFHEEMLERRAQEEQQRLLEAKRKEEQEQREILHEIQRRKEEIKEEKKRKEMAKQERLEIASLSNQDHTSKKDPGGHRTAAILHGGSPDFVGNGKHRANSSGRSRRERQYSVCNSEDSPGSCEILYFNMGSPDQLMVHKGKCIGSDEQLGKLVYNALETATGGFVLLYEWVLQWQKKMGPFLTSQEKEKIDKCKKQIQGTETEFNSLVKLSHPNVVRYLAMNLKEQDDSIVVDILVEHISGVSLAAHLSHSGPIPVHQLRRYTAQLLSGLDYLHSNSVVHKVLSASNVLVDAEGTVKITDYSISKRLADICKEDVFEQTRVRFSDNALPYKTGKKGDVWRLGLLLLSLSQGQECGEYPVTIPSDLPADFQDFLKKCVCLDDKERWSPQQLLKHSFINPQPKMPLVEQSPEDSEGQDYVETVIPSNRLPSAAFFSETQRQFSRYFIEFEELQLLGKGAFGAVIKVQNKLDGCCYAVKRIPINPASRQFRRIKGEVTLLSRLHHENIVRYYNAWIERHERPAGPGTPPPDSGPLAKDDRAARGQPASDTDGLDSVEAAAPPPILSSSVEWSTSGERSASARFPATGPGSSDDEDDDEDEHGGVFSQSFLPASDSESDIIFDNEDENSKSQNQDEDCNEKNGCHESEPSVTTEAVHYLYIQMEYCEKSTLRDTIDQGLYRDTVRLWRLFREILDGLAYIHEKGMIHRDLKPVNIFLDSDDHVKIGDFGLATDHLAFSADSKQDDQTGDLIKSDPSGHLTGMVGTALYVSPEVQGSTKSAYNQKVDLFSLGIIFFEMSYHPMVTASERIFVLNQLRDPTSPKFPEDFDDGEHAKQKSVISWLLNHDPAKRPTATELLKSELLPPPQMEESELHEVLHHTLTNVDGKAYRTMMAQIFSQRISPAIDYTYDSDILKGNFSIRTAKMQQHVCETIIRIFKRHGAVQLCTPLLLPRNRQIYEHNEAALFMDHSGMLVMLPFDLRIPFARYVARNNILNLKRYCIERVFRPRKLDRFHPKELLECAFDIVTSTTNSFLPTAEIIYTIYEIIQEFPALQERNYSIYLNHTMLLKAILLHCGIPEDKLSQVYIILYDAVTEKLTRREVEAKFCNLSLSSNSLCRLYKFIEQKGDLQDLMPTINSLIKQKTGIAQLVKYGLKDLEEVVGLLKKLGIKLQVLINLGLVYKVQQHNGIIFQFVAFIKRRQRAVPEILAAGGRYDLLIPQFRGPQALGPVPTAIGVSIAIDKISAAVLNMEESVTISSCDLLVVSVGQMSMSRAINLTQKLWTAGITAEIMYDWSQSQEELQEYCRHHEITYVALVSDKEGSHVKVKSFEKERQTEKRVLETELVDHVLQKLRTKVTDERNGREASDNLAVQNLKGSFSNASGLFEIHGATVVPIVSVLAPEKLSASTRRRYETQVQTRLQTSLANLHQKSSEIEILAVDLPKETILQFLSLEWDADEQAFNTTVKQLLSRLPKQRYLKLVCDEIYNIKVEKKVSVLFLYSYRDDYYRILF
GCN2 kinase, sequence (Q9P2K8 whole entry): as above

Structure (SMILES)	Ki (GCN2 kinase) [µM]	IC50 [1] [µM]
C[C@H]1CCCCN1c1cc(-c2cnc3ccc(C(F)F)nn23)ncn1 [II-323, (S)-6-(Difluoromethyl)-3-(6-(2-methylpiperidin-1-yl)pyrimidin-4-yl)imidazo[1,2-b]pyridazine]	0.01 to 1	0.5 to 5
C[C@@H]1COCCN1c1cc(-c2cnc3ccc(C(F)F)nn23)ncn1 [II-324, (R)-4-(6-(6-(Difluoromethyl)imidazo[1,2-b]pyridazin-3-yl)pyrimidin-4-yl)-3-methylmorpholine]	0.01 to 1	> 5
C[C@H]1COCCN1c1cc(-c2cnc3ccc(C(F)F)nn23)ncn1 [II-325, (S)-4-(6-(6-(Difluoromethyl)imidazo[1,2-b]pyridazin-3-yl)pyrimidin-4-yl)-3-methylmorpholine]	0.01 to 1	0.5 to 5
FC(F)c1ccc2ncc(-c3cc(N4CCOC(Cn5cncn5)C4)ncn3)n2n1 (stereo not drawn) [II-326, 2-((1H-1,2,4-Triazol-1-yl)methyl)-4-(6-(6-(difluoromethyl)imidazo[1,2-b]pyridazin-3-yl)pyrimidin-4-yl)morpholine]	0.01 to 1	> 5
FC(F)c1ccc2ncc(-c3cc(N4CCCC(Cn5ccnn5)C4)ncn3)n2n1 (stereo not drawn) [II-327, 3-(6-(3-((1H-1,2,3-Triazol-1-yl)methyl)piperidin-1-yl)pyrimidin-4-yl)-6-(difluoromethyl)imidazo[1,2-b]pyridazine]	0.01 to 1	> 5
Cc1ccc2ncc(-c3cc(N4CCO[C@H](CNS(C)(=O)=O)C4)ncn3)n2n1 [II-328, (S)—N-((4-(6-(6-Methylimidazo[1,2-b]pyridazin-3-yl)pyrimidin-4-yl)morpholin-2-yl)methyl)methanesulfonamide]	0.01 to 1	0.5 to 5
CC1C(CNS(C)(=O)=O)CC(F)(F)CN1c1cc(-c2cnc3ccc(C(F)F)nn23)ncn1 (stereo not drawn) [II-329, N-((1-(6-(6-(Difluoromethyl)imidazo[1,2-b]pyridazin-3-yl)pyrimidin-4-yl)-5,5-difluoro-2-methylpiperidin-3-yl)methyl)methanesulfonamide]	< 0.01	< 0.5
CS(=O)(=O)NC[C@H]1CN(c2cc(-c3cnc4ccc(C(F)F)nn34)ncn2)C[C@H](C(F)(F)F)O1 [II-330, N-(((2R,6R)-4-(6-(6-(Difluoromethyl)imidazo[1,2-b]pyridazin-3-yl)pyrimidin-4-yl)-6-(trifluoromethyl)morpholin-2-yl)methyl)methanesulfonamide]	0.01 to 1	0.5 to 5
CS(=O)(=O)NC[C@@H]1CN(c2cc(-c3cnc4ccc(C(F)F)nn34)ncn2)C[C@H](C(F)(F)F)O1 [II-331, N-(((2S,6R)-4-(6-(6-(Difluoromethyl)imidazo[1,2-b]pyridazin-3-yl)pyrimidin-4-yl)-6-(trifluoromethyl)morpholin-2-yl)methyl)methanesulfonamide]	< 0.01	< 0.5
NS(=O)(=O)N1CC2OCCN(c3cc(-c4cnc5ccc(C(F)F)nn45)ncn3)C2C1 (stereo not drawn) [II-332, 4-(6-(6-(Difluoromethyl)imidazo[1,2-b]pyridazin-3-yl)pyrimidin-4-yl)hexahydropyrrolo[3,4-b][1,4]oxazine-6(2H)-sulfonamide]	0.01 to 1	> 5
NS(=O)(=O)N1CC2(CCCN(c3cc(-c4cnc5ccc(C(F)F)nn45)ncn3)C2)C1 [II-333, 6-(6-(6-(Difluoromethyl)imidazo[1,2-b]pyridazin-3-yl)pyrimidin-4-yl)-2,6-diazaspiro[3.5]nonane-2-sulfonamide]	0.01 to 1	0.5 to 5
NS(=O)(=O)N1CC2(CN(c3cc(-c4cnc5ccc(C(F)F)nn45)ncn3)CCO2)C1 [II-334, 8-(6-(6-(Difluoromethyl)imidazo[1,2-b]pyridazin-3-yl)pyrimidin-4-yl)-5-oxa-2,8-diazaspiro[3.5]nonane-2-sulfonamide]	0.01 to 1	0.5 to 5
NS(=O)(=O)N1CC2CCCN(c3cc(-c4cnc5ccc(C(F)F)nn45)ncn3)C2C1 (stereo not drawn) [II-335, 1-(6-(6-(Difluoromethyl)imidazo[1,2-b]pyridazin-3-yl)pyrimidin-4-yl)octahydro-6H-pyrrolo[3,4-b]pyridine-6-sulfonamide]	0.01 to 1	> 5
CC1NCCN(c2cc(-c3cnc4ccc(C(F)F)nn34)ncn2)C1CNS(C)(=O)=O (stereo not drawn) [II-336, N-((1-(6-(6-(Difluoromethyl)imidazo[1,2-b]pyridazin-3-yl)pyrimidin-4-yl)-3-methylpiperazin-2-yl)methyl)methanesulfonamide]	> 1	> 5

Continued, values first:

Ki (GCN2 kinase) [µM]	IC50 [1] [µM]	Structure (SMILES)
0.01 to 1	> 5	CC(O)c1ccc2ncc(-c3cc(N4C[C@@H](CNS(C)(=O)=O)C(F)(F)[C@@H](C)C4)ncn3)n2n1 (stereo partly drawn) [II-337, N-(((3S,5S)-4,4-Difluoro-1-(6-(6-(1-hydroxyethyl)imidazo[1,2-b]pyridazin-3-yl)pyrimidin-4-yl)-5-methylpiperidin-3-yl)methyl)methanesulfonamide]
0.01 to 1	> 5	CC(O)c1ccc2ncc(-c3cc(N4CCO[C@H](CNS(C)(=O)=O)C4)ncn3)n2n1 (stereo partly drawn) [II-338, N-(((2S)-4-(6-(6-(1-Hydroxyethyl)imidazo[1,2-b]pyridazin-3-yl)pyrimidin-4-yl)morpholin-2-yl)methyl)methanesulfonamide trifluoroacetate]
0.01 to 1	0.5 to 5	FC(F)c1ccc2ncc(-c3cc(N4CCCC(Cn5cncn5)C4)ncn3)n2n1 (stereo not drawn) [II-339, 3-(6-(3-((1H-1,2,4-Triazol-1-yl)methyl)piperidin-1-yl)pyrimidin-4-yl)-6-(difluoromethyl)imidazo[1,2-b]pyridazine]
0.01 to 1	< 0.5	CCN1CCN(c2cc(-c3cnc4ccc(C(F)F)nn34)ncn2)C(C)C1CNS(C)(=O)=O (stereo not drawn) [II-340, N-((4-(6-(6-(Difluoromethyl)imidazo[1,2-b]pyridazin-3-yl)pyrimidin-4-yl)-1-ethyl-3-methylpiperazin-2-yl)methyl)methanesulfonamide]
0.01 to 1	> 5	CC1C(CO)OCCN1c1cc(-c2cnc3ccc(C(F)F)nn23)ncn1 (stereo not drawn) [II-341, (4-(6-(6-(Difluoromethyl)imidazo[1,2-b]pyridazin-3-yl)pyrimidin-4-yl)-3-methylmorpholin-2-yl)methanol]
0.01 to 1	0.5 to 5	CC1C(CO)OCCN1c1cc(-c2cnc3ccc(C(F)F)nn23)ncn1 (stereo not drawn) [II-342, (4-(6-(6-(Difluoromethyl)imidazo[1,2-b]pyridazin-3-yl)pyrimidin-4-yl)-3-methylmorpholin-2-yl)methanol]
0.01 to 1	> 5	OCC1CN(c2cc(-c3cnc4ccc(C(F)F)nn34)ncn2)CC2(COC2)O1 (stereo not drawn) [II-343, (8-(6-(6-(Difluoromethyl)imidazo[1,2-b]pyridazin-3-yl)pyrimidin-4-yl)-2,5-dioxa-8-azaspiro[3.5]nonan-6-yl)methanol]
< 0.01	< 0.5	NS(=O)(=O)N1CCC2CCN(c3cc(-c4cnc5ccc(C(F)F)nn45)ncn3)C2C1 (stereo not drawn) [II-344, 1-(6-(6-(Difluoromethyl)imidazo[1,2-b]pyridazin-3-yl)pyrimidin-4-yl)octahydro-6H-pyrrolo[2,3-c]pyridine-6-sulfonamide]
< 0.01	< 0.5	CC1C(CNS(C)(=O)=O)OCCN1c1cc(-c2cnc3ccc(C(F)F)nn23)ncn1 (stereo not drawn) [II-345, N-((4-(6-(6-(Difluoromethyl)imidazo[1,2-b]pyridazin-3-yl)pyrimidin-4-yl)-3-methylmorpholin-2-yl)methyl)methanesulfonamide]
0.01 to 1	> 5	CC1C(CNS(C)(=O)=O)OCCN1c1cc(-c2cnc3ccc(C(F)F)nn23)ncn1 (stereo not drawn) [II-346, N-((4-(6-(6-(Difluoromethyl)imidazo[1,2-b]pyridazin-3-yl)pyrimidin-4-yl)-3-methylmorpholin-2-yl)methyl)methanesulfonamide]
< 0.01	< 0.5	NS(=O)(=O)NCC1CN(c2cc(-c3cnc4ccc(C(F)F)nn34)ncn2)CCO1 (stereo not drawn) [II-347, N-((4-(6-(6-(Difluoromethyl)imidazo[1,2-b]pyridazin-3-yl)pyrimidin-4-yl)morpholin-2-yl)methyl)sulfuric diamide]
0.01 to 1	0.5 to 5	CN(C)S(=O)(=O)NCC1CCCN(c2cc(-c3cnc4ccc(C(F)F)nn34)ncn2)C1 (stereo not drawn) [II-348, 3-((1-(6-(6-(Difluoromethyl)imidazo[1,2-b]pyridazin-3-yl)pyrimidin-4-yl)piperidin-3-yl)methyl)-1,1-dimethylsulfuric Diamide]
0.01 to 1	0.5 to 5	CN(C)S(=O)(=O)NCC1CN(c2cc(-c3cnc4ccc(C(F)F)nn34)ncn2)CCO1 (stereo not drawn) [II-349, 3-((4-(6-(6-(Difluoromethyl)imidazo[1,2-b]pyridazin-3-yl)pyrimidin-4-yl)morpholin-2-yl)methyl)-1,1-dimethyl sulfuric diamide]
0.01 to 1	> 5	OC1CCN(CCC2CCN(c3cc(-c4cnc5ccc(C(F)F)nn45)ncn3)CC2)C1 (stereo not drawn) [II-351, 1-(2-(1-(6-(6-(Difluoromethyl)imidazo[1,2-b]pyridazin-3-yl)pyrimidin-4-yl)piperidin-4-yl)ethyl)pyrrolidin-3-ol]
0.01 to 1	> 5	OC1CCN(C2CCN(c3cc(-c4cnc5ccc(C(F)F)nn45)ncn3)C2)C1 (stereo not drawn) [II-352, 1′-(6-(6-(Difluoromethyl)imidazo[1,2-b]pyridazin-3-yl)pyrimidin-4-yl)-[1,3′-bipyrrolidin]-3-ol]
0.01 to 1	> 5	O=C1CN(CC2CCN(c3cc(-c4cnc5ccc(C(F)F)nn45)ncn3)C2)CCN1 (stereo not drawn) [II-353, 4-((1-(6-(6-(Difluoromethyl)imidazo[1,2-b]pyridazin-3-yl)pyrimidin-4-yl)pyrrolidin-3-yl)methyl)piperazin-2-one]
